Patent US10150760B2, “Compounds for use in preparing heterocyclic triazole agonists of the APJ receptor” (AMGEN INC., priority 2016, dated 2018)
pEC50: −log10 of the molar value.

Experiments:
[1] = system: isolated perfused rat hearts; assay: Ex vivo isolated perfused rat heart assay (Langendorff apparatus), load independent inotropic and lusitropic effects; design: species or system Sprague Dawley rat; conditions: ex vivo isolated perfused rat heart, percent change over vehicle; for Isolated Heart Assay dP/dtmax (%): contractility; for Isolated Heart Assay dP/dtmin (%): relaxation
Text: Evidence for Load Independent Inotropic Effects with APJ Agonists Using Ex Vivo Assay (Isolated Perfused Rat Hearts)
Naive Sprague Dawley® SD rats (Harlan laboratories (Livermore, Calif. USA)) were anaesthetized and hearts were excised followed by cannulation in the Langendorff apparatus (Harvard apparatus, Holliston, Mass. USA) via aorta. The heart was perfused retrograde with modified oxygenated Krebs-Henseleit buffer (Skrzypiec-Spring M et al., (2007) J. Pharmacol Toxicol Methods 55: 113-126). The pressure of the solution causes the aortic valve to shut and the perfusate is then forced into the ostium and the coronary vessels. This allows the heart to beat for several h. A balloon was inserted into the left ventricle (LV) to measure dP/dtmax (derivative of left ventricular pressure) as an index of cardiac contractility. The APJ agonist was perfused constantly in a dose dependent manner into the heart to examine cardiac contractility.
Example 49.0 was infused at different concentrations and load independent contractility was measured by index of LV dP/dtmax and the results are expressed as a percent change over vehicle. […] Example 49.0 was infused at different concentrations and load independent lusitropic effect (relaxation) was measured by index of LV dP/dtmin where results are expressed as percent change over vehicle. […] Example 60.0 was infused at different concentrations and load independent contractility was measured by index of LV dP/dtmax and the results are expressed as a percent change over vehicle. […] Example 60.0 was infused at different concentrations and load independent lusitropic effect (relaxation) was measured by index of LV dP/dtmin where results are expressed as percent change over vehicle.

human APJ receptor = human APJ receptor (Homo sapiens (Human), UniProt P35414); assay: [35S]GTPγS binding assay on membranes from CHO cells stably expressing human APJ receptor; assay type: biochemical; conditions: read-out: Activity hAPJ SPA EC50 IP
Summary of the method: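 Membranes from CHO cells stably expressing human APJ incubated with ligand, 0.2 nM [35S]GTPγS and WGA SPA beads in HEPES pH 7.5 with 5 mM MgCl2, 200 mM NaCl, 3 μM GDP, 90 min at RT. Nonspecific binding defined with 100 μM GTPγS; EC50 by non-linear regression.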

Sequence of human APJ receptor (P35414 whole entry): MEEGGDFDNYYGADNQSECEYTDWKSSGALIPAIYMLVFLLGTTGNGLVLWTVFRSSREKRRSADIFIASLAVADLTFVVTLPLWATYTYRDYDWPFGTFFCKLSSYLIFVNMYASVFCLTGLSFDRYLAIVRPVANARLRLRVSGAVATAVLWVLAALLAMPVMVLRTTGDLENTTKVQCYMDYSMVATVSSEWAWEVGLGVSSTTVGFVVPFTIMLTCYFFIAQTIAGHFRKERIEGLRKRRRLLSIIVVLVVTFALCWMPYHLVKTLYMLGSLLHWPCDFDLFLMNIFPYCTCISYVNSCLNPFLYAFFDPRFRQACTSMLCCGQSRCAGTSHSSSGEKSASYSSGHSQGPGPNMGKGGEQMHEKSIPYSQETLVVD

Molecule | Isolated Heart Assay dP/dtmax (%) [1] [%] | Isolated Heart Assay dP/dtmin (%) [1] | pEC50 (human APJ receptor)
COc1ncnc(OC)c1-n1c(NS(=O)(=O)[C@@H](C)[C@H](C)c2ncc(Cl)cn2)nnc1[C@@H]1COCCO1 (single isomer, unassigned) [Example 195.0, (2S,3R)-3-(5-chloropyrimidin-2-yl)-N-(4-(4,6-dimethoxypyrimidin-5-yl)-5-((R)-1,4-dioxan-2-yl)-4H-1,2,4-triazol-3-yl)butane-2-sulfonamide or (2S,3R)-3-(5-chloropyrimidin-2-yl)-N-(4-(4,6-dimethoxypyrimidin-5-yl)-5-((S)-1,4-dioxan-2-yl)-4H-1,2,4-triazol-3-yl)butane-2-sulfonamide] | 8.9 | 15.0% | 7.85
(1R,2S)-1-(5-chloropyridin-2-yl)-N-(4-(2,6-dimethoxyphenyl)-5-((R)-1,4-dioxan-2-yl)-4H-1,2,4-triazol-3-yl)-1-methoxypropane-2-sulfonamide or (1R,2S)-1-(5-chloropyridin-2-yl)-N-(4-(2,6-dimethoxyphenyl)-5-((S)-1,4-dioxan-2-yl)-4H-1,2,4-triazol-3-yl)-1-methoxypropane-2-sulfonamide [Example 265.0] | 2.05 | 6.23% | 8.46
COc1cccc(OC)c1-n1c(NS(=O)(=O)[C@@H](C)[C@H](C)c2ncc(Cl)cn2)nnc1[C@H]1CCCO1 (single isomer, unassigned) [Example 47.0, (2S,3R)-3-(5-chloro-2-pyrimidinyl)-N-(4-(2,6-dimethoxyphenyl)-5-((2S)-tetrahydro-2-furanyl)-4H-1,2,4-triazol-3-yl)-2-butanesulfonamide or (2S,3R)-3-(5-chloro-2-pyrimidinyl)-N-(4-(2,6-dimethoxyphenyl)-5-((2R)-tetrahydro-2-furanyl)-4H-1,2,4-triazol-3-yl)-2-butanesulfonamide] | 6.5 | 1.0% | 9.14
COc1ncnc(OC)c1-n1c(NS(=O)(=O)[C@@H](C)[C@H](C)c2ncc(Cl)cn2)nnc1[C@H]1CCCOC1 (single isomer, unassigned) [Example 102.0, (2S,3R)-3-(5-chloropyrimidin-2-yl)-N-(4-(4,6-dimethoxypyrimidin-5-yl)-5-((S)-tetrahydro-2H-pyran-3-yl)-4H-1,2,4-triazol-3-yl)butane-2-sulfonamide or (2S,3R)-3-(5-chloropyrimidin-2-yl)-N-(4-(4,6-dimethoxypyrimidin-5-yl)-5-((R)-tetrahydro-2H-pyran-3-yl)-4H-1,2,4-triazol-3-yl)butane-2-sulfonamide] | 2.0 | 5.0% | 8.28
COc1cccc(OC)c1-n1c(NS(=O)(=O)[C@@H](C)[C@H](O)c2ncc(C)cn2)nnc1[C@H]1CCOC1 (single isomer, unassigned) [Example 140.0, (1R,2S)-N-(4-(2,6-dimethoxyphenyl)-5-((S)-tetrahydrofuran-3-yl)-4H-1,2,4-triazol-3-yl)-1-hydroxy-1-(5-methylpyrimidin-2-yl)propane-2-sulfonamide or (1R,2S)-N-(4-(2,6-dimethoxyphenyl)-5-((R)-tetrahydrofuran-3-yl)-4H-1,2,4-triazol-3-yl)-1-hydroxy-1-(5-methylpyrimidin-2-yl)propane-2-sulfonamide] | 8.85 | 15.4% | 7.05
COc1cccc(OC)c1-n1c(NS(=O)(=O)[C@@H](C)[C@H](OC)c2ncc(Cl)cn2)nnc1[C@H]1CCCOC1 (single isomer, unassigned) [Example 65.0, (1R,2S)-1-(5-chloropyrimidin-2-yl)-N-(4-(2,6-dimethoxyphenyl)-5-((R)-tetrahydro-2H-pyran-3-yl)-4H-1,2,4-triazol-3-yl)-1-methoxypropane-2-sulfonamide or (1R,2S)-1-(5-chloropyrimidin-2-yl)-N-(4-(2,6-dimethoxyphenyl)-5-((S)-tetrahydro-2H-pyran-3-yl)-4H-1,2,4-triazol-3-yl)-1-methoxypropane-2-sulfonamide] | 6.0 | No effect | 8.54
COc1cccc(OC)c1-n1c(NS(=O)(=O)[C@@H](C)[C@H](OC)c2ncc(Cl)cn2)nnc1[C@H]1OCC[C@H]1C (single isomer, unassigned) [Example 74.0, (1R,2S)-1-(5-chloropyrimidin-2-yl)-N-(4-(2,6-dimethoxyphenyl)-5-((2R,3S)-3-methyltetrahydrofuran-2-yl)-4H-1,2,4-triazol-3-yl)-1-methoxypropane-2-sulfonamide or (1R,2S)-1-(5-chloropyrimidin-2-yl)-N-(4-(2,6-dimethoxyphenyl)-5-((2S,3R)-3-methyltetrahydrofuran-2-yl)-4H-1,2,4-triazol-3-yl)-1-methoxypropane-2-sulfonamide] | 5.8 | 2.1% | 6.92
COc1cccc(OC)c1-n1c(NS(=O)(=O)[C@@H](C)[C@H](C)c2ncc(Cl)cn2)nnc1[C@H]1CCCOC1 (single isomer, unassigned) [Example 63.0, (2S,3R)-3-(5-chloropyrimidin-2-yl)-N-(4-(2,6-dimethoxyphenyl)-5-((R)-tetrahydro-2H-pyran-3-yl)-4H-1,2,4-triazol-3-yl)butane-2-sulfonamide or (2S,3R)-3-(5-chloropyrimidin-2-yl)-N-(4-(2,6-dimethoxyphenyl)-5-((S)-tetrahydro-2H-pyran-3-yl)-4H-1,2,4-triazol-3-yl)butane-2-sulfonamide] | 14.0 | 11.0% | 8.82
(1R,2S)-1-(5-chloropyrimidin-2-yl)-N-(4-(2,6-dimethoxyphenyl)-5-((R)-1,4-dioxan-2-yl)-4H-1,2,4-triazol-3-yl)-1-methoxypropane-2-sulfonamide or (1R,2S)-1-(5-chloropyrimidin-2-yl)-N-(4-(2,6-dimethoxyphenyl)-5-((S)-1,4-dioxan-2-yl)-4H-1,2,4-triazol-3-yl)-1-methoxypropane-2-sulfonamide [Example 198.0] | −2.58 | 1.65% | 8.43
COc1cccc(OC)c1-n1c(NS(=O)(=O)[C@@H](C)[C@H](C)c2ncc(Cl)cn2)nnc1[C@H]1CCCO1 (single isomer, unassigned) [Example 53.0, (2S,3R)-3-(5-chloro-2-pyrimidinyl)-N-(4-(2,6-dimethoxyphenyl)-5-((2S)-tetrahydro-2-furanyl)-4H-1,2,4-triazol-3-yl)-2-butanesulfonamide or (2S,3R)-3-(5-chloro-2-pyrimidinyl)-N-(4-(2,6-dimethoxyphenyl)-5-((2R)-tetrahydro-2-furanyl)-4H-1,2,4-triazol-3-yl)-2-butanesulfonamide] | 14.0 | 12.4% | 7.89
COc1cccc(OC)c1-n1c(NS(=O)(=O)[C@@H](C)[C@H](OC)c2ncc(Cl)cn2)nnc1[C@H]1OCC[C@H]1C (single isomer, unassigned) [Example 73.0, (1R,2S)-1-(5-chloropyrimidin-2-yl)-N-(4-(2,6-dimethoxyphenyl)-5-((2R,3S)-3-methyltetrahydrofuran-2-yl)-4H-1,2,4-triazol-3-yl)-1-methoxypropane-2-sulfonamide or (1R,2S)-1-(5-chloropyrimidin-2-yl)-N-(4-(2,6-dimethoxyphenyl)-5-((2S,3R)-3-methyltetrahydrofuran-2-yl)-4H-1,2,4-triazol-3-yl)-1-methoxypropane-2-sulfonamide] | 2.0 | No effect | 8.85
COc1cccc(OC)c1-n1c(NS(=O)(=O)[C@@H](C)[C@H](C)c2ncc(Cl)cn2)nnc1[C@H]1CCOC1 (single isomer, unassigned) [Example 61.0, (2S,3R)-3-(5-chloropyrimidin-2-yl)-N-(4-(2,6-dimethoxyphenyl)-5-((R)-tetrahydrofuran-3-yl)-4H-1,2,4-triazol-3-yl)butane-2-sulfonamide or (2S,3R)-3-(5-chloropyrimidin-2-yl)-N-(4-(2,6-dimethoxyphenyl)-5-((S)-tetrahydrofuran-3-yl)-4H-1,2,4-triazol-3-yl)butane-2-sulfonamide] | 3.0 | No effect | 7.54
